Source: patent US9572786B2, “Use of capsiate or dihydrocapsidate” (Catholic University Industry Academy Cooperation Foundation, priority 2007, dated 2017)

Experiments:
cyclin D1 = experiment: Cyclin expression, Western blotting: cyclin D1; format: cell-based, human; details: HUVEC; 1, 5, 10, 25 μM; 10 ng/mL VEGF; 12 hours
Procedure: (§1) 3×10^5 HUVEC were placed on a 60 mm plate and cultured for 24 hours. After washing twice with M199 medium (Invitrogen, USA), the cells were cultured in M199 medium containing 1% FBS for 6 hours. After adding capsiate or dihydrocapsiate at different concentrations (1 μM, 5 μM, 10 μM, 25 μM), followed by pre-culturing for 30 minutes, 10 ng/mL VEGF was added and the cells were cultured for 12 hours. The cells were collected and proteins obtained therefrom were quantitated and the expression level of the proteins was identified by Western blotting using antibodies of cyclin D1, cyclin E and cyclin A.

HUVEC [1] = experiment: Tube formation on Matrigel; format: cell-based, human; details: 1, 5, 10, 25 μM, VEGF 10 ng/mL, 20 hours
Procedure: The effect of capsiate or dihydrocapsiate on tube formation was investigated according to a method published in the literature [Lee O H et al., 1999, Biochem. Biophys. Res. Commun. 264; 743-750].
In brief, 250 μL of growth factor-reduced Matrigel (10 mg protein/mL) was added to a 16 mm tissue culture well and subjected to polymerization at 37° C. for 30 minutes. HUVEC cultured for in M199 medium containing 1% FBS for 6 hours were treated with trypsin, collected, and resuspended in M199 medium containing 1% FBS. Capsiate or dihydrocapsiate at different concentrations (1 μM, 5 μM, 10 μM, 25 μM) were pre-treated at room temperature for 30 minutes. The cells were added to the Matrigel at a concentration of 1.8×10^5 cells/well and VEGF (10 ng/mL) was added. After culturing for 20 hours, photograph was taken (×200) and the area covered by the tube network was measured according to an optical imaging technique [scanned with Adobe Photoshop and measured with Image-Pro Plus (Media Cybermetics).

HUVEC [2] = experiment: Cell cycle analysis by FACS; format: cell-based, human; details: 1, 5, 10, 25 μM, 10 ng/mL VEGF, 20 hours
Procedure: In order to identify the mechanism of the inhibition of proliferation of endothelial cells confirmed in Example 9, fluorescence-activated cell sorting (FACS) analysis was carried out on the cells at different phases of cell cycle.
3×10^5 HUVEC were placed on a 60 mm plate and cultured for 24 hours. After washing twice with M199 medium (Invitrogen, USA), the cells were cultured in M199 medium containing 1% FBS for 6 hours. After adding capsiate or dihydrocapsiate at different concentrations (1 μM, 5 μM, 10 μM, 25 μM), followed by pre-culturing for 30 minutes, 10 ng/mL VEGF was added and the cells were cultured for 20 hours. Then, the cells were fixed with ethanol cooled in ice. The fixed cells were dehydrated in PBS containing 2% FBS and 0.1% Tween 20 at 4° C. for 30 minutes. After centrifuge, the cells were lysed in the same buffer solution. After treating with RNase (37° C., 1 hr), followed by staining with propidium iodide, analysis was carried out using a FACS analyzer (FACScan DB PharMingen flow cytometer).

CD31 = experiment: Endothelial cell content in Matrigel plug, CD31 immunohistochemical staining; format: in vivo; details: C57/BL6 mouse Matrigel plug; 60 μg; 100 ng VEGF
Procedure: Immunohistochemical staining was carried out using CD31 in order to measure the endothelial cell content in the Matrigel plug.
The Matrigel plug was fixed using 2% formaldehyde and moisture was removed from the Matrigel using 15% sucrose and 30% sucrose based on the principle of osmosis. Then, the Matrigel plug was hardened at −70° C. The hardened Matrigel plug was sliced with a thickness of 8-12 μm, stained with CD31-antibody (PECAM-1 antibody, BD Biosciences, USA) and the level of expression by endothelial cells was observed under a microscope.

cyclin E = experiment: Cyclin expression, Western blotting: cyclin E; format: cell-based, human; details: HUVEC; 1, 5, 10, 25 μM; 10 ng/mL VEGF; 12 hours
Procedure: as §1

aortic ring = experiment: Sprouting from the aortic ring; format: cell-based, Sprague Dawley rat; details: rat aortic ring in Matrigel; 6 days; evaluation 0 to 5 points
Procedure: The degree of sprouting from the aortic ring caused by treatment with VEGF was investigated as follows in order to identify the effect of capsiate or dihydrocapsiate on VEGF-induced angiogenesis.
The aortic ring was prepared from the artery of Sprague Dawley rat (6-8 weeks old). The aortic ring was placed on a 48-well plate coated with 120 μL of Matrigel and 50 μL of Matrigel was further added. Then, 200 μL of a medium (human endothelial serum-free medium, Invitrogen, USA) containing capsiate or dihydrocapsiate and VEGF or a medium containing only VEGF was added. 6 days later, the cells were fixed, stained using Diff-Quick and subjected to evaluation (0 to 5 points) in a double blinded manner.

cyclin A = experiment: Cyclin expression, Western blotting: cyclin A; format: cell-based, human; details: HUVEC; 1, 5, 10, 25 μM; 10 ng/mL VEGF; 12 hours
Procedure: as §1

C57/BL6 mouse = experiment: Mouse Matrigel plug assay; format: in vivo; details: 60 μg in 0.6 mL Matrigel with 100 ng VEGF, subcutaneous injection, 6 days
Procedure: Mouse Matrigel plug was carried out in order to investigate the effect of capsiate or dihydrocapsiate on VEGF-induced angiogenesis in vivo [Min K J et al., 2007, Blood, 15: 1495-1502].
0.6 mL of Matrigel containing 60 μg of capsiate or dihydrocapsiate, 100 ng of VEGF and 10 units of heparin or Matrigel containing 100 ng of VEGF only was administered to C57/BL6 mouse (Orient, Korea) through subcutaneous injection. 6 days later, the produced Matrigel plug was taken out.

HUVEC [3] = experiment: Chemotactic mobility, Transwell assay; format: cell-based, human; details: 1, 5, 10, 25 μM; 4 hours
Procedure: Transwell assay (Corning Costar, USA) was carried out in order to investigate the effect of capsiate or dihydrocapsiate on chemotactic mobility of HUVEC [Lee O H et al., 1999, Biochem. Biophys. Res. Commun. 264; 743-750].
In brief, the bottom side of a filter was coated with 10 μg of gelatin and M199 medium containing VEGF and 1% FBS was added to the lower well. HUVEC were prepared by treating with trypsin and diluting in M199 medium containing 1% FBS to a concentration of 1×10^6 cells/mL. Capsiate or dihydrocapsiate at different concentrations (1 μM, 5 μM, 10 μM, 25 μM) were pre-treated at room temperature for 30 minutes. The cells in […] of medium were added to the upper well and cultured at 37° C. for 4 hours. After fixation, followed by staining with hematoxylin and eosin, the cells remaining on the top surface of the filter without moving were removed. The cells that migrated to the bottom side of the filter were observed and counted using an optical microscope (×200).

| Structure (SMILES) | VEGF-increased cyclin D1 expression in protein level (cyclin D1) | VEGF-induced formation of tube-like structures (HUVEC [1]) | number of endothelial cells in G1 arrest phase (HUVEC [2]) | level of CD31 expression in Matrigel plug (CD31) | VEGF-increased cyclin E expression in protein level (cyclin E) | VEGF-promoted sprouting from the aortic ring (aortic ring) | VEGF-increased cyclin A expression in protein level (cyclin A) | VEGF-induced angiogenesis in Matrigel plug (colour) (C57/BL6 mouse) | VEGF-increased chemotactic mobility of HUVEC (HUVEC [3]) |
| --- | --- | --- | --- | --- | --- | --- | --- | --- | --- |
| COc1cc(COC(=O)CCCC/C=C/C(C)C)ccc1O [capsiate] | concentration-dependent decrease | reduced | increase of the number of endothelial cells in G1 arrest phase | decreased to the extent comparable to the control group | concentration-dependent decrease | inhibited the sprouting in a concentration-dependent manner | concentration-dependent decrease | angiogenesis hardly occurred | decreased in a concentration-dependent manner |
| COc1cc(COC(=O)CCCCCCC(C)C)ccc1O [dihydrocapsiate] | concentration-dependent decrease | reduced | increase of the number of endothelial cells in G1 arrest phase | decreased to the extent comparable to the control group | concentration-dependent decrease | inhibited the sprouting in a concentration-dependent manner | concentration-dependent decrease | angiogenesis hardly occurred | decreased in a concentration-dependent manner |
